Results on 1 molecule are retold here after patent publication US9696323B2, “Biomarkers for chagas disease related cardiomyopathy” (THE BOARD OF REGENTS OF THE UNIVERSITY OF TEXAS SYSTEM, priority 2013, dated 2017).

Test [1] relates to T. cruzi. Particulars: infected rats; BZ parasite-induced, PBN oxidative stress-induced (Wen et al. 2006, 2010); cited from earlier work.
Test [2] in a line: 2D-GE plasma proteome profile (differential protein expression) of T. cruzi-infected rats treated with PBN and/or BZ. The format is in vivo, rat. Particulars: plasma. An excerpt:
Certain embodiments include biomarkers identified in a previous study. Parasite persistence and oxidative damage in the heart are known to be of pathological significance during Chagas disease (Zacks et al., (2005) An Acad Bras Cienc, 77, 695-715; Gupta et al., (2009) Interdiscip Perspect Infect Dis, 2009, 190354). […] In the previous study the inventors identified 92 proteins that were differentially expressed or oxidized in chagasic plasma. Functional analysis allocated a majority of these proteins to inflammation/immunity and lipid metabolism categories, and to molecular pathways associated with cardiovascular dysfunction, e.g., myocardial infarction, hypertrophy, and fibrosis, and pulmonary embolism and hypertension. Some proteins in chagasic rats treated with PBN and/or BZ were allocated to curative pathways (immune regulation and cardiac remodeling). The 2D-GE results were validated by Western blotting. […] Increased plasma levels of GSN, MYL2, and VIM were directly correlated with the severity of cardiac disease in human chagasic patients. […] These findings have utility in diagnosing disease severity and designing suitable therapy for management of human chagasic patients.
Ingenuity Pathway Analysis (IPA) is a highly curated and comprehensive software used for the integration of proteins into networks and pathways with biological meaning (Thomas and Bonchev, (2010). Hum Genomics, 4, 353-360). Network analysis of the plasma proteome profile of chagasic rats identified four major sub-networks linked to host response to T. cruzi infection and disease development (Table V). The maximal numbers of the differentially expressed plasma proteins (19 proteins) in chagasic rats were associated with antigen presentation and inflammatory response category (Table V) and indicators of persistent inflammation, known to be of pathological significance in Chagas disease (Dhiman et al., (2009) Clinical and Vaccine Immunology, 16, 660-666; Tanowitz et al., (2009) Prog Cardiovasc Dis, 51, 524-539; Junqueira et al., (2010) Expert Rev Mol Med, 12, e29). Following functional analysis of the inflammation-associated proteins, 12 proteins (APOA1, APOE, C3, CFB, CFH, FGB, GSN, KRT10, PLG, SCG2, SERPINA1, and SERPINC1) were identified as being involved in immune cell trafficking and cell movement of leukocytes, granulocytes, phagocytes, neutrophils, and dendritic and antigen presenting cells. Some of the differentially expressed proteins in inflammation category were associated with activation (APOE, C3, CFH, GC and PLG), chemotaxis (C3, SCG2, SERPINA1, SERPINC1), and infiltration of leukocytes (APOA1, APOE, C3, PLG, KRT10) and neutrophils (C3, CFB, CFH, PLG). Up regulation of APOE, APOA1, APOH, GC and PLG in chagasic plasma was indicative of activation, binding and accumulation of macrophages in the disease state. Of the 19 differentially expressed inflammation-associated proteins, 11 proteins (APOE, C3, CFB, CFH, GSN, KRT10, SCG2, SERPINA1, SERPINC1, GC, and PLG) were carbonylated in chagasic plasma. […] Other proteins (APOE, C3, KRT3, and SCG2) were exposed to oxidation due to T. cruzi-induced, acute oxidative stress, but were normalized in expression and oxidation during the chronic phase.
Seventeen of the differentially expressed proteins in chagasic plasma, i.e., AFM, C4BPA, CACNA1D, DLGAP2, GC, KNG1, MUG1, MYLPF, MY05A, MY05B, PRPH, PZP, RAI14, and SCG2, were allotted to the lipid metabolism/molecular transport/small molecule biochemistry category (Table V) and functionally linked by IPA network analysis to lipid, fatty acid, and carbohydrate metabolism. A majority of the proteins in this category, i.e., ALB, APOA1, APOA4, APOE, APOH, C3, GC, GNAQ, MY05A, PLG, SCD2, SERPINA1, SERPINC1 and VIM, were linked to the synthesis, metabolism, transport, and modification of lipids and fatty acids, and to uptake and release or efflux of lipids, eicosanoids, and cholesterol. […]

In test [3] the test system is T. cruzi. In words: Oxidative modification (carbonylation) of plasma proteins in chagasic rats treated with PBN and/or BZ. The format is in vivo, rat. Particulars: chagasic rat plasma; 5 of 11 carbonylated proteins (CFB, CFH, SERPRINA1, SERPINC1, PLG). An excerpt: Certain embodiments include biomarkers identified in a previous study. Parasite persistence and oxidative damage in the heart are known to be of pathological significance during Chagas disease (Zacks et al., (2005) An Acad Bras Cienc, 77, 695-715; Gupta et al., (2009) Interdiscip Perspect Infect Dis, 2009, 190354). […] In the previous study the inventors identified 92 proteins that were differentially expressed or oxidized in chagasic plasma. Functional analysis allocated a majority of these proteins to inflammation/immunity and lipid metabolism categories, and to molecular pathways associated with cardiovascular dysfunction, e.g., myocardial infarction, hypertrophy, and fibrosis, and pulmonary embolism and hypertension. Some proteins in chagasic rats treated with PBN and/or BZ were allocated to curative pathways (immune regulation and cardiac remodeling). The 2D-GE results were validated by Western blotting. […] Increased plasma levels of GSN, MYL2, and VIM were directly correlated with the severity of cardiac disease in human chagasic patients. […] These findings have utility in diagnosing disease severity and designing suitable therapy for management of human chagasic patients. […]

Take `CC(C)(C)/[N+]([O-])=C/c1ccccc1` [PBN]: the “controlling parasite- and oxidative stress-induced pathology” value in the test on T. cruzi [1] was “beneficial effects”. Further, the “Spot# 106 Average Normalized Density × 100,000” value is 1.70 in test [2] (RAP group (acute infection)) and 6.94 in test [2] (RCP/RCB/RCPB groups (chronic infection)). In addition, the “oxidative modification of inflammation-associated plasma proteins” value in the test on T. cruzi [3] is reported as “prevented the oxidative modification of five of these proteins”.
